From patent US20230020663A1, “SULFONAMIDE INHIBITORS AS CTPS1 INHIBITORS” (Step Pharma S.A.S., priority 2019, published 2023)

System: human CTPS1 versus CTPS2
Test: Human CTPS1 versus CTPS2 selectivity assessment by RapidFire/MS analysis
Assay type: biochemical
Settings: RapidFire/MS IC50 ratio
Description: Human CTPS1 versus CTPS2 Selectivity Assessment by RapidFire/MS Analysis.
The enzyme inhibitory activities against each target isoform of interest may be determined for the compounds of the invention using an optimised RapidFire high-throughput mass spectrometry (RF/MS) assay format. RF/MS assays for both human CTPS1 and CTPS2 may be performed in assay buffer consisting of 50 mM HEPES (Merck), 20 mM MgCl2, 5 mM KCl, 1 mM DTT, 0.01% Tween-20, pH to 8.0 accordingly. Human full-length active C-terminal FLAG-His-tag CTPS1 (UniProtKB—P17812, CTPS[1-591]-[…]) may be obtained from Proteros biostructures GmbH. Human full length active C-terminal FLAG-His-Avi tagged CTPS2 (UniProtKB-Q9NRF8, CTPS2 [1-586]-[…]) may be obtained from Harker Bio.
Human CTPS (1 or 2) protein may be prepared in 1× assay buffer to the final working protein concentration required for the reaction. A 2 uL volume per well of 2×CTPS (1 or 2) protein may be mixed with 40 nL of compound using acoustic (ECHO) delivery and incubated for 10 minutes at 25° C. Each isoform enzymatic reaction may be subsequently initiated by addition of 2 uL per well of a 2× substrate mix in assay buffer. For hCTPS1: ATP (0.3 mM), UTP (0.2 mM), GTP (0.07 mM) and L-glutamine (0.1 mM). For hCTPS2: ATP (0.1 mM), UTP (0.04 mM), GTP (0.03 mM) and L-glutamine (0.1 mM). Each mixture may be incubated for an appropriate amount of time per isoform within the determined linear phase of the reaction at 25′C. A 60 uL volume of stop solution (1% formic acid with 0.5 uM ^13C9-^15N3-CTP in H2O) may be added and the plate immediately heat-sealed and centrifuged for 10 minutes at 4,000 rpm. Following centrifugation, plates may be loaded onto the Agilent RapidFire microfluidic solid phase extraction system coupled to an API4000 triple quadrupole mass spectrometer (RF/MS) for analysis.
In all cases, the enzyme converts UTP to CTP. Highly specific and sensitive multiple reaction monitoring (MRM) MS methods may be optimised for the detection of the enzymatic reaction product, CTP, and the stable isotope labelled product standard ^13C9-^15N3-CTP. Readout for data analysis may be calculated as the ratio between the peak area of the product CTP and the internal standard ^13C9-^15N3-CTP. For data reporting, the following equation may be used: […]
For each screening plate, the means of the negative (DMSO) and positive control values were used for the calculation of the respective assay window (S/B) and Z′ values. The median of the respective control values was used for calculation of percent inhibition according to the following equation: […]
Percentage inhibition was then plotted against compound concentration, and the 50% inhibitory concentration (IC50) was determined from the resultant concentration-response curve.
Fold selectivity between CTPS1 and CTPS2 was subsequently calculated according to the following equation: […]

SMILES | Selectivity (fold selectivity between CTPS1 and CTPS2) (Table 26) | Selectivity (fold selectivity between CTPS1 and CTPS2) (Table 27)
CCOc1cncc(-c2ccc(NC(=O)C(CC)c3ccnc(NS(=O)(=O)C4CC4)n3)cc2)n1 (centres unmarked) [Example P105, 2-(2-(Cyclopropanesulfonamido)pyrimidin-4-yl)-N-(4-(6-ethoxypyrazin-2-yl)phenyl)butanamide] | ++ (>30-60 fold (++)) | 
CCC(C(=O)Nc1ccc(-c2cncc(OCC(F)(F)F)n2)cc1)c1ccnc(NS(=O)(=O)C2CC2)n1 (centres unmarked) [Example P108] | +++ (>60 fold (+++)) | 
CCOc1cncc(-c2ccc(NC(=O)C(CCOC)c3ccnc(NS(=O)(=O)C4CC4)n3)cc2)n1 (centres unmarked) [Example P110] | ++ (>30-60 fold (++)) | 
CCOc1cncc(-c2ccc(NC(=O)C3(c4ccnc(NS(=O)(=O)C5CC5)n4)CCOCC3)nc2)n1 [Example P115, 4-(2-(Cyclopropanesulfonamido)pyrimidin-4-yl)-N-(5-(6-ethoxypyrazin-2-yl)pyridin-2-yl)tetrahydro-2H-pyran-4-carboxamide] | +++ (>60 fold (+++)) | 
CCOc1cncc(-c2ccc(C(=O)NCc3ccnc(NS(=O)(=O)C4CC4)n3)cc2)n1 [Example P118] | +++ (>60 fold (+++)) | 
CC(C)(C(=O)Nc1ccc(-c2cncc(C3CC3)n2)cn1)c1ccnc(NS(=O)(=O)C2CC2)n1 [Example P125] | ++ (>30-60 fold (++)) | 
CC(C)(C(=O)Nc1ccc(-c2cncc(C3CC3)n2)cc1F)c1ccnc(NS(=O)(=O)C2CC2)n1 [Example P128] | + (2-30 fold (+)) | 
CC(C)c1cncc(-c2ccc(NC(=O)C(C)(C)c3ccnc(NS(=O)(=O)C4CC4)n3)cc2)n1 [Example P132] | ++ (>30-60 fold (++)) | 
CCOc1cncc(-c2ccc(NC(=O)C3(c4ccnc(NS(=O)(=O)C5CC5)n4)CCCC3)nc2)n1 [Example P136] | +++ (>60 fold (+++)) | 
CCOc1cncc(-c2ccc(NC(=O)C3(c4ccnc(NS(=O)(=O)C5CC5)n4)CCOCC3)c(F)c2)n1 [Example P143] | +++ (>60 fold (+++)) | 
CCOc1cncc(-c2ccc(NC(=O)C(CCOC)c3ccnc(NS(=O)(=O)C4CC4)n3)nc2)n1 (centres unmarked) [Example P145] | +++ (>60 fold (+++)) | 
CCOc1cncc(-c2ccc(NC(=O)C(CCOC)c3ccnc(NS(=O)(=O)C4CC4)n3)c(F)c2)n1 (centres unmarked) [Example P146] | +++ (>60 fold (+++)) | 
CCOc1cncc(-c2ccc(NC(=O)C(F)(CC)c3ccnc(NS(C)(=O)=O)n3)nc2)n1 (centres unmarked) [Example P151] | +++ (>60 fold (+++)) | 
CCOc1cncc(-c2cnc(NC(=O)C(CC)c3ccnc(NS(=O)(=O)C4CC4)n3)c(C)c2)n1 (centres unmarked) [Example P155] | + (2-30 fold (+)) | 
CCC(C(=O)Nc1ncc(-c2cncc(OC)n2)cc1F)c1ccnc(NS(=O)(=O)C2CC2)n1 (centres unmarked) [Example P158] | + (2-30 fold (+)) | 
CCC(C(=O)Nc1ccc(-c2cncc(OC)n2)cn1)c1ccnc(NS(=O)(=O)C2CC2)n1 (centres unmarked) [Example P159] | +++ (>60 fold (+++)) | 
CCOc1cncc(-c2ccc(NC(=O)C(CC)c3ccnc(NS(=O)(=O)C4CC4)n3)c(C)c2)n1 (centres unmarked) [Example P161] | + (2-30 fold (+)) | 
CCOc1cncc(-c2cnc(NC(=O)C(CC)c3ccnc(NS(=O)(=O)C4CC4)n3)c(F)c2)n1 (centres unmarked) [Example P162] | ++ (>30-60 fold (++)) | 
CCOc1cncc(-c2ccc(NC(=O)C(C)(CC)c3ccnc(NS(=O)(=O)C4CC4)n3)nc2)n1 (centres unmarked) [Example P163] | +++ (>60 fold (+++)) | 

SMILES | Selectivity (fold selectivity between CTPS1 and CTPS2) (Table 26) | Selectivity (fold selectivity between CTPS1 and CTPS2) (Table 27)
CCOc1cncc(-c2ccc(NC(=O)C(OC)c3ccnc(NS(=O)(=O)C4CC4)n3)cc2)n1 (centres unmarked) [Example P164] | + (2-30 fold (+)) | 
CCOc1cncc(-c2ccc(NC(=O)C(CC)c3cccc(NS(=O)(=O)C4CC4)n3)nc2)n1 (centres unmarked) [Example P188] | ++ (>30-60 fold (++)) | 
CCOc1cncc(-c2ccc(NC(=O)C(CC)c3cccc(NS(=O)(=O)C4CC4)n3)cc2)n1 (centres unmarked) [Example P191] | ++ (>30-60 fold (++)) | 
CCOc1cncc(-c2ccc(NC(=O)C(C)(C)c3cncc(NS(=O)(=O)C4CC4)n3)nc2)n1 [Example P195] | +++ (>60 fold (+++)) | 
CCOc1cncc(-c2ccc(NC(=O)C(C)(C)c3cncc(NS(=O)(=O)C4CC4)n3)cc2)n1 [Example P196] | +++ (>60 fold (+++)) | 
CCOc1cncc(-c2ccc(NC(=O)C3(c4cncc(NS(=O)(=O)C5CC5)n4)CCOCC3)nc2)n1 [Example P197] | +++ (>60 fold (+++)) | 
CCOc1cncc(-c2ccc(NC(=O)C(C)(CCOC)c3cncc(NS(=O)(=O)C4CC4)n3)nc2)n1 (centres unmarked) [Example P198] | +++ (>60 fold (+++)) | 
CCOc1cncc(-c2ccc(NC(=O)C(F)(CC)c3cncc(NS(=O)(=O)C4CC4)n3)nc2)n1 (centres unmarked) [Example P200] | ++ (>30-60 fold (++)) | 
CCOc1cncc(-c2ccc(NC(=O)C(CC)c3cncc(NS(=O)(=O)C4CC4)n3)nc2)n1 (centres unmarked) [Example P201] | +++ (>60 fold (+++)) | 
CCOc1cncc(-c2ccc(NC(=O)C(CC)c3cncc(NS(=O)(=O)C4CC4)n3)cc2)n1 (centres unmarked) [Example P202] | +++ (>60 fold (+++)) | 
CCOc1cncc(-c2ccc(NC(=O)C(C)(OC)c3cncc(NS(=O)(=O)C4CC4)n3)nc2)n1 (centres unmarked) [Example P205a] | +++ (>60 fold (+++)) | 
CCOc1cncc(-c2ccc(NC(=O)C(C)(OC)c3cncc(NS(=O)(=O)C4CC4)n3)nc2)n1 (centres unmarked) [Example P205b] | ++ (>30-60 fold (++)) | 
CCOc1cncc(-c2ccc(C(=O)NC(CC)c3ccnc(NS(=O)(=O)C4CC4)n3)c(F)c2)n1 (centres unmarked) [Example P216] | +++ (>60 fold (+++)) | 
CC(C)Oc1cncc(-c2ccc(C(=O)NC(C)(C)c3cncc(NS(=O)(=O)C4CC4)n3)c(F)c2)n1 [Example P221] | + (2-30 fold (+)) | 
CC(C)(NC(=O)c1ccc(-c2cncc(C(F)(F)F)n2)cc1)c1cncc(NS(=O)(=O)C2CC2)n1 [Example P222] | + (2-30 fold (+)) | 
CCOc1cncc(-c2ccc(NC(=O)C3(c4ccnc(NS(=O)(=O)C5CC5)n4)CCC(=O)CC3)nc2)n1 [Example P226, 1-(2-(Cyclopropanesulfonamido)pyrimidin-4-yl)-N-(5-(6-ethoxypyrazin-2-yl)pyridin-2-yl)-4-oxocyclohexanecarboxamide] |  | +++ (>60 fold (+++))
CCOc1cncc(-c2ccc(NC(=O)C3(c4ccnc(NS(=O)(=O)C5CC5)n4)CCC(F)(F)CC3)nc2)n1 [Example P242] |  | +++ (>60 fold (+++))
CCOc1cncc(-c2ccc(NC(=O)C3(c4ccnc(NS(=O)(=O)C5CC5)n4)CCC4(CC3)OCCO4)nc2)n1 [Example P244, 8-(2-(cyclopropanesulfonamido)pyrimidin-4-yl)-N-(5-(6-ethoxypyrazin-2-yl)pyridin-2-yl)-1,4-dioxaspiro[4.5]decane-8-carboxamide] |  | +++ (>60 fold (+++))
CCOc1cncc(-c2ccc(NC(=O)C3(c4ccnc(NS(=O)(=O)C5CC5)n4)CCN(S(C)(=O)=O)CC3)nc2)n1 [Example P251] |  | +++ (>60 fold (+++))
